Measurements published in patent US5994349A, “3-carboalkoxy-2, 3-dihydro-1H-phenothiazin-4[10H]-one derivatives” (priority 1997, dated 1999).
Read-outs that look alike come from different tables or passages of the source.

How the values were obtained:
[1] = tested on: pentylenetetrazol seizures; assay: subcutaneous pentylenetetrazol (scMet) test, Phase I, mice ip; format: in vivo, male Carworth Farms No. 1 (CF1) mice; details: Mus musculus, mice ip
Method: (§1) Initial evaluations for anticonvulsant activity include phases I, VIA and VIB test procedures. These tests are performed intraperitoneally in male Carworth Farms No. 1 (CF1) mice, weighing 18-25 g (Phase I) or orally in male Sprague-Dawley rats, weighing 100-150 g (Phases VIA and VIB). The evaluation is based on three tests: maximal electroshock (MES), subcutaneous (scMet), and the rotorod test for neurological toxicity (Tox). (a) Anticonvulsant Screening Project, Antiepileptic Drug Development Program, National Institutes of Health, DHEW Publ (NIH)(U.S.) 1978, NIH 78-1093. (b) Porter, R. J.; Cereghino, J. J.; Gladding, G. D.; Hessie, B. J.; Kupferberg, H. J.; Scoville, B.; White, B. G. Antiepileptic drug development program. Cleveland Clin. Q. 1984, 51, 293-305. (c) Krall, R. L.; Penry, J. K.; White, B. G.; Kupferberg, H. J.; Swinyard, E. A. Antiepileptic drug development: II. Anticonvulsant drug screening. Epilepsia 1978, 19, 400-428. In the MES test, maximal electroshock seizures are elicited with a 60- cycle alternating current of 50 mA intensity (5-7 times that necessary to elicit minimal electroshock seizures) delivered via corneal electrodes for 0.2 seconds. A drop of 0.9% saline is placed on the eye prior to application of the electrodes in order to […]. Abolition of the hind limb tonic extension component of the seizure is defined as protection and results are expressed as the number of animals protected/the number of animals tested.
In the sc MET test, eighty-five mg/kg of pentylenetetrazol, which induces seizures in more than 95% of mice, is administered as a 0.5% solution subcutaneously in the posterior midline. The animal is observed for 30 minutes. Failure to observe even a threshold seizure (a single episode of clonic spasms of at least 5 seconds duration) is defined as protection and the results are expressed as the number of animals protected/ the number of animals tested. […]

[2] = tested on: maximal electroshock seizures; assay: maximal electroshock (MES) test, Phase I, mice ip; format: in vivo, male Carworth Farms No. 1 (CF1) mice; details: for responders at 10 mg/kg / responders at 30 mg/kg / responders at 100 mg/kg / responders at 300 mg/kg: Mus musculus
Method: as §1
In phase I, compounds are suspended in 0.5% aqueous methylcellulose and are administered intraperitoneally at three dosage levels (30, 100, and 300 mg/kg) with anticonvulsant activity and motor impairment noted 30 min and 4 h (and in some cases 2 h and 6 h) after administration.

neurotoxicity (rotorod) [3] = assay: rotorod test for neurological toxicity (Tox), Phase I, mice ip; format: in vivo, male Carworth Farms No. 1 (CF1) mice
Method: as §1
The rotorod test is used to evaluate neurotoxicity. The animal is placed on a 1 inch diameter knurled plastic rod rotating at 6 rpm. Normal mice can remain on a rod rotating at this speed indefinitely. […]

[4] = rotorod toxicity, oral rat (Phase VIA/VIB); format: in vivo, male Sprague-Dawley rats; details: rat, in vivo, po
Method: as §1
(§2) The rotorod test is used to evaluate neurotoxicity. The animal is placed on a 1 inch diameter knurled plastic rod rotating at 6 rpm. Normal mice can remain on a rod rotating at this speed indefinitely.
(§3) To differentiate the results between different rodent species, 4b (X=H), as well as 4a (R=H), 4e (R=Cl), 4f (R=Cl) and 4i (R=CH3) are subsequently evaluated for oral (po) activity in the rat (Phase VIA or VIB).

neurotoxicity (rotorod) [5] = assay: rotorod toxicity, oral rat (Phase VIA/VIB); format: in vivo, male Sprague-Dawley rats; details: rat oral, 30 mg/kg
Method: as §1, §2, §3

[6] = tested on: maximal electroshock seizures; assay: maximal electroshock (MES) test, oral rat (Phase VIA/VIB); format: in vivo, male Sprague-Dawley rats; details: for ED50: MES, Phase VIB
Method: as §1, §3

[7] = tested on: threshold tonic extension electroshock seizures; assay: Threshold Tonic Extension (TTE) test, mice ip; format: in vivo; details: 100 mg/kg
Source text: (§4) Piredda, S. G.; Woodhead, J. H.; Swinyard, E. A. Effect of stimulus intensity on the profile of anticonvulsant activity of phenytoin, ethosuximide and valproate. J. Pharmacol. Exp. Ther. 1985, 232, 741-745. The TTE test is a clinically nonselective, electroconvulsive seizure model that identifies compounds that raise seizure threshold as well as those that prevent seizure spread. […] The TTE test is similar to the MES screen but uses a lower level of electrical current. The lower current makes the TTE test more sensitive, but less discriminate than the MES screen. This ability makes the model attractive because it allows for the identification of compounds that may have been omitted by the standard identification screen. […] These TTE active compounds may represent compounds acting by novel mechanisms.
Twenty mice are pretreated with 100 mg/kg of the test compound. […] This stimulation produces a TTE seizure in the animals. For each time interval, results are expressed as a ratio of the number of animals protected over the number of animals tested.

[8] = tested on: maximal electroshock seizures; assay: MES confirmation of TTE test, mice ip; format: in vivo; details: 100 mg/kg
Method: as §1, §4
Twenty mice are pretreated with 100 mg/kg of the test compound. At several time intervals (15 min, 30 min, 1 h, 2 h and 4 h) post treatment with the test compound, four mice at each time point are challenged with 12.5 mA of electrical current for 0.2 sec via corneal electrodes. This stimulation produces a TTE seizure in the animals. For each time interval, results are expressed as a ratio of the number of animals protected over the number of animals tested.

[9] = 0.5 h, 30 min, read-out: scMet 30 min
[10] = 4 h, read-out: MES 4 h (converted)
[11] = 0.5 h, 30 min, read-out: MES 30 min (converted)

Work on `CCOC(=O)[C@@H]1C(=O)C2=C(C[C@H]1C)Nc1ccccc1S2` (relative stereo) [Compound 4b, 3-Carbethoxy-2-methyl-2,3-dihydro-1H-phenothiazin-4[10H] -one] yielded a responders at 10 mg/kg [1, 9] of 0%, a responders at 30 mg/kg [1, 9] of 0% and a responders at 100 mg/kg [1, 9] of 0%. It also gave a responders at 10 mg/kg ([1]; 4 h, read-out: scMet 4 h) of 0%, a responders at 30 mg/kg ([1]; 4 h, read-out: scMet 4 h) of 0% and a responders at 100 mg/kg ([1]; 4 h, read-out: scMet 4 h) of 0%. The responders at 10 mg/kg ([2]; 4 h, read-out: MES 4 h) was 0%, the responders at 30 mg/kg ([2]; 4 h, read-out: MES 4 h) was 0% and the responders at 100 mg/kg [2, 10] was 0%. For the same compound, the responders at 10 mg/kg ([2]; 0.5 h, 30 min, read-out: MES 30 min) was 0%, the responders at 30 mg/kg [2, 11] was 33.3% and the responders at 100 mg/kg [2, 11] was 100%. For the same compound, the “Tox 30 min” value (neurotoxicity (rotorod) [3]; 10 mg/kg) was 0/4, the “Tox 4 h” value (neurotoxicity (rotorod) [3]; 10 mg/kg) was 0/2 and the “Tox 30 min” value (neurotoxicity (rotorod) [3]; 30 mg/kg) was 0/8. For the same compound, the “Tox 4 h” value (neurotoxicity (rotorod) [3]; 30 mg/kg) was 0/4, the “Tox 30 min” value (neurotoxicity (rotorod) [3]; 100 mg/kg) was 0/4 and the “Tox 4 h” value (neurotoxicity (rotorod) [3]; 100 mg/kg) was 0/2. For the same compound, the TD50 [4] was over 500 mg/kg, the Tox (neurotoxicity (rotorod) [5]; 0.25 h) was 0/4 and the Tox (neurotoxicity (rotorod) [5]; 0.50 h) was 1/2. For the same compound, the Tox (neurotoxicity (rotorod) [5]; 1.00 h) was 0/4, the Tox (neurotoxicity (rotorod) [5]; 2.00 h) was 0/4 and the Tox (neurotoxicity (rotorod) [5]; 4.00 h) was 0/4. It also gave a responders at 30 mg/kg ([6]; 0.25 h) of 75%, a responders at 30 mg/kg ([6]; 1.00 h) of 50% and a responders at 30 mg/kg ([6]; 2.00 h) of 0%. For the same compound, the responders at 30 mg/kg ([6]; 4.00 h) was 100%, the responders at 30 mg/kg ([6]; 0.5 h, 0.50 h) was 25% and the ED50 ([6]; repeat test, read-out: ED50 (repeat test)) was 47.2 mg/kg. For the same compound, the “protective index (TD50/ED50)” value ([6]; repeat test (ED50 47.2, TD50 >500 mg/kg)) was over 10.6.
With `CC1CC(=O)C2=C(C1)Nc1ccccc1S2` (centres unmarked) [Compound 4d, 2-Methyl-2,3-dihydro-1H-phenothiazin-4[10H] -one] the responders at 30 mg/kg [1, 9] was 0%, the responders at 100 mg/kg [1, 9] was 0% and the responders at 300 mg/kg ([1]; 0.5 h, 30 min, read-out: scMet 30 min (converted)) was 0%. For the same compound, the responders at 30 mg/kg ([1]; 4 h, read-out: scMet 4 h) was 0%, the responders at 100 mg/kg ([1]; 4 h, read-out: scMet 4 h) was 0% and the responders at 300 mg/kg ([1]; 4 h, read-out: scMet 4 h (converted)) was 0%. It also gave a responders at 30 mg/kg ([2]; 4 h, read-out: MES 4 h) of 0%, a responders at 100 mg/kg [2, 10] of 0% and a responders at 300 mg/kg [2, 10] of 0%. The responders at 30 mg/kg [2, 11] was 0%, the responders at 100 mg/kg [2, 11] was 0% and the responders at 300 mg/kg [2, 11] was 0%. For the same compound, the “phase I activity” value ([2]; Phase I, in words) was “inactive”, the “TTE Result” value ([7]; 0.25 h) was 1/4 and the “TTE Result (repeat test)” value ([7]; 0.25 h) was 2/4. The “TTE Result” value ([7]; 0.50 h) was 3/4, the “TTE Result (repeat test)” value ([7]; 0.50 h) was 2/4 and the “TTE Result” value ([7]; 1.00 h) was 1/4. The “TTE Result (repeat test)” value ([7]; 1.00 h) was 0/4, the “TTE Result” value ([7]; 2.00 h) was 3/4 and the “TTE Result (repeat test)” value ([7]; 2.00 h) was 0/4. The “TTE Result” value ([7]; 4.00 h) was 0/4, the “TTE Result (repeat test)” value ([7]; 4.00 h) was 0/4 and the “TTE Result (repeat test)” value ([7]; 6.00 h) was 1/4. For the same compound, the “Tox 30 min” value (neurotoxicity (rotorod) [3]; 30 mg/kg) was 0/4, the “Tox 4 h” value (neurotoxicity (rotorod) [3]; 30 mg/kg) was 0/2 and the “Tox 30 min” value (neurotoxicity (rotorod) [3]; 100 mg/kg) was 0/8. For the same compound, the “Tox 4 h” value (neurotoxicity (rotorod) [3]; 100 mg/kg) was 0/4, the “Tox 30 min” value (neurotoxicity (rotorod) [3]; 300 mg/kg) was 0/4 and the “Tox 4 h” value (neurotoxicity (rotorod) [3]; 300 mg/kg) was 0/2. For the same compound, the MES confirmation ([8]; 0.25 h) was 0/4, the “MES confirmation (repeat test)” value ([8]; 0.25 h) was 1/4 and the MES confirmation ([8]; 0.50 h) was 3/4. For the same compound, the “MES confirmation (repeat test)” value ([8]; 0.50 h) was 1/4, the MES confirmation ([8]; 1.00 h) was 1/4 and the MES confirmation ([8]; 2.00 h) was 0/4.
`COC(=O)[C@@H]1C(=O)C=C(Nc2ccc(Cl)cc2)C[C@H]1C` (relative stereo) [Compound 1, methyl 4-[(4'-chlorophenyl)-amino]-6-methyl-2-oxo-3-cyclohexene-1-carboxylate, reference compound] showed a TD50 [4] of over 380 mg/kg, a responders at 10 mg/kg ([6]; 0.25 h) of 75% and a responders at 10 mg/kg ([6]; 1.00 h) of 100%. The responders at 10 mg/kg ([6]; 2.00 h) was 100%, the responders at 10 mg/kg ([6]; 4.00 h) was 75% and the responders at 10 mg/kg ([6]; 0.5 h, 0.50 h) was 100%. For the same compound, the ED50 ([6]; first test, read-out: ED50) was 5.8 mg/kg, the “MES (repeat test)” value ([6]; repeat test, 0.50 h) was 3/4 and the “MES (repeat test)” value ([6]; repeat test, 1.00 h) was 2/4. For the same compound, the “MES (repeat test)” value ([6]; repeat test, 2.00 h) was 1/4.
